Test results as given in US12435044B2, “Pyridazinone herbicides and pyridazinone intermediates used to prepare a herbicide” (FMC Corporation, priority 2018, dated 2025).

Columns and labels:
Format in all cases: in vivo
[1] = test system: soybean (GLXMA; Glycine max, cv. Pioneer 35T58); assay: Test of Tables L1 to L3, postemergence, mixtures of Cpd. No. 20 with benoxacor, isoxadifen-ethyl, or cloquintocet-mexyl; conditions: for Plant response rating (0 to 100 scale) GLXMA: approx. 14 d
Excerpt: (§1) This test evaluated the effect of mixtures of Cpd. No. 20 with benoxacor, isoxadifen-ethyl, or cloquintocet-mexyl on several plant species. Seeds of plant species selected from corn (ZEAMD; Zea mays, cv. ‘Pioneer 1184’), soybean (GLXMA; Glycine max, cv. Pioneer 35T58), winter wheat (TRZAW; Triticum aetivum, cv. Arezzo), rice (ORYSS; Oryza sativa, cv. M202), and giant foxtail (SETFA; Setaria faberi) were planted in pots containing Redi-Earth® planting medium (Scotts Company, 14111 Scottslawn Road, Marysville, Ohio 43041) comprising spaghnum peat moss, vermiculite, wetting agent and starter nutrients and treated postemergence using test chemicals formulated in a non-phytotoxic solvent mixture which included a surfactant. Plants ranged in height from 7 to 10 cm and were in the one- to two-leaf stage for the postemergence treatment. Treated plants and untreated controls were maintained in a greenhouse for approximately 14 d, after which time all treated plants were compared to untreated controls and visually evaluated for injury. Plant response ratings, summarized in Tables L1 to L3, are based on a 0 to 100 scale where 0 is no effect and 100 is complete control. A dash (-) response means no test result. Test results are presented as a mean of 4 reps.

[2] = test system: rice (ORYSS; Oryza sativa, cv. M202); assay: as above; conditions: for Plant response rating (0 to 100 scale) ORYSS: approx. 14 d
Excerpt: as §1

[3] = test system: corn (ZEAMD; Zea mays, cv. ‘Pioneer 1184’); assay: as above; conditions: for Plant response rating (0 to 100 scale) ZEAMD: approx. 14 d
Excerpt: as §1

[4] = test system: giant foxtail (SETFA; Setaria faberi); assay: as above; conditions: for Plant response rating (0 to 100 scale) SETFA: approx. 14 d
Excerpt: as §1

[5] = test system: winter wheat (TRZAW; Triticum aetivum, cv. Arezzo); assay: as above; conditions: for Plant response rating (0 to 100 scale) TRZAW: approx. 14 d
Excerpt: as §1

[6] = test system: corn (ZEAMD; Zea mays, cv. ‘Pioneer 1184’); assay: Test K pre-/postemergence, mixtures of Cpd. No. 20 with metribuzin or rimsulfuron
Excerpt: This test evaluated the effect of mixtures of Cpd. No. 20 with metribuzin or rimsulfuron on several plant species. Seeds of plant species selected from corn (ZEAMD; Zea mays, cv. ‘Pioneer 1184’), soybean (GLXMA; Glycine max, cv. Pioneer 35T58), giant foxtail (SETFA; Setaria faberi), palmer amaranth (AMAPA; Amaranthus palmeri), common waterhemp (AMATU; Amaranthus rudis), mare's tail (ERICA; Conyza canadensis), and common ragweed (AMBEL; Ambrosia artemisiifolia) were planted in pots containing Tama Silt Loam soil and treated preemergence with a directed soil spray using test chemicals formulated in a non-phytotoxic solvent mixture which included a surfactant.
At the same time, plants selected from these crop and weed species were planted in pots containing Redi-Earth® planting medium (Scotts Company, 14111 Scottslawn Road, Marysville, Ohio 43041) comprising spaghnum peat moss, vermiculite, wetting agent and starter nutrients and treated postemergence with test chemicals formulated in the same manner. Plants ranged in height from 2 to 10 cm and were in the one- to two-leaf stage for the postemergence treatment. Treated plants and untreated controls were maintained in a greenhouse for approximately 14-21 d, after which time all treated plants were compared to untreated controls and visually evaluated for injury. Plant response ratings, summarized in Tables K1 to K4, are based on a 0 to 100 scale where 0 is no effect and 100 is complete control. A dash (-) response means no test result. Test results are presented as a mean of 4 reps.

[7] = test system: pigweed (Amaranthus retroflexus); assay: Test C pre-/postemergence greenhouse test; conditions: scale 0 to 100
Outline: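 Test chemicals were formulated in a non-phytotoxic solvent mixture with surfactant and applied preemergence to seeds in silt loam soil or postemergence to plants of 2 to 18 cm in a peat/vermiculite medium. After 13 to 21 d in a greenhouse, response was visually scored from 0 (no effect) to 100 (complete control).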

[8] = Cpd. No. 20 alone 125 g a.i./ha
[9] = Cpd. No. 20 alone 250 g a.i./ha
[10] = Cpd. No. 20 alone 375 g a.i./ha

Cc1ccc2ccc(C)c(-c3c(O)c(Cl)nn(C)c3=O)c2c1 [Cpd. No. 20, 6-chloro-4-(2,7-dimethyl-1-naphthalenyl)-5-hydroxy-2-methyl-3(2H)-pyridazinone]
GLXMA plant response rating, 0 to 100 scale ([1]; 125 g a.i./ha): 15
GLXMA plant response rating, 0 to 100 scale ([1]; 250 g a.i./ha): 29
GLXMA plant response rating, 0 to 100 scale ([1]; 375 g a.i./ha): 39
Plant response rating (0 to 100 scale) GLXMA [1, 8]: 15
Plant response rating (0 to 100 scale) GLXMA [1, 9]: 29
Plant response rating (0 to 100 scale) GLXMA [1, 10]: 39
ORYSS plant response rating, 0 to 100 scale ([2]; 125 g a.i./ha): 5
ORYSS plant response rating, 0 to 100 scale ([2]; 250 g a.i./ha): 18
ORYSS plant response rating, 0 to 100 scale ([2]; 375 g a.i./ha): 23
Plant response rating (0 to 100 scale) ORYSS [2, 8]: 5
Plant response rating (0 to 100 scale) ORYSS [2, 9]: 18
Plant response rating (0 to 100 scale) ORYSS [2, 10]: 23
ZEAMD plant response rating, 0 to 100 scale ([3]; 125 g a.i./ha): 8
ZEAMD plant response rating, 0 to 100 scale ([3]; 250 g a.i./ha): 1
ZEAMD plant response rating, 0 to 100 scale ([3]; 375 g a.i./ha): 34
Plant response rating (0 to 100 scale) ZEAMD [3, 8]: 8
Plant response rating (0 to 100 scale) ZEAMD [3, 9]: 1
Plant response rating (0 to 100 scale) ZEAMD [3, 10]: 34
SETFA plant response rating, 0 to 100 scale ([4]; 125 g a.i./ha): 84
SETFA plant response rating, 0 to 100 scale ([4]; 250 g a.i./ha): 88
SETFA plant response rating, 0 to 100 scale ([4]; 375 g a.i./ha): 90
Plant response rating (0 to 100 scale) SETFA [4, 8]: 84
Plant response rating (0 to 100 scale) SETFA [4, 9]: 88
Plant response rating (0 to 100 scale) SETFA [4, 10]: 90
TRZAW plant response rating, 0 to 100 scale ([5]; 125 g a.i./ha): 28
TRZAW plant response rating, 0 to 100 scale ([5]; 250 g a.i./ha): 36
TRZAW plant response rating, 0 to 100 scale ([5]; 375 g a.i./ha): 39
Plant response rating (0 to 100 scale) TRZAW [5, 8]: 28
Plant response rating (0 to 100 scale) TRZAW [5, 9]: 36
Plant response rating (0 to 100 scale) TRZAW [5, 10]: 39
ZEAMD plant response rating, 0 to 100 scale ([6]; postemergence, 8 g a.i./ha): 0
ZEAMD plant response rating, 0 to 100 scale ([6]; postemergence, 16 g a.i./ha): 0
ZEAMD plant response rating, 0 to 100 scale ([6]; postemergence, 31 g a.i./ha): 0
ZEAMD plant response rating, 0 to 100 scale ([6]; postemergence, 62 g a.i./ha): 0
ZEAMD plant response rating, 0 to 100 scale ([6]; preemergence, 8 g a.i./ha): 0
ZEAMD plant response rating, 0 to 100 scale ([6]; preemergence, 16 g a.i./ha): 0
ZEAMD plant response rating, 0 to 100 scale ([6]; preemergence, 31 g a.i./ha): 0
ZEAMD plant response rating, 0 to 100 scale ([6]; preemergence, 62 g a.i./ha): 0
Plant response rating, Pigweed ([7]; Postemergence, 16 g ai/ha): 90
Plant response rating, Pigweed ([7]; Postemergence, 31 g ai/ha): 95
Plant response rating, Pigweed ([7]; Postemergence, 62 g ai/ha): 95
Plant response rating, Pigweed ([7]; Postemergence, 125 g ai/ha): 98
Plant response rating, Pigweed ([7]; Preemergence, 31 g ai/ha): 100
Plant response rating, Pigweed ([7]; Preemergence, 61 g ai/ha): 100
Plant response rating, Pigweed ([7]; Preemergence, 62 g ai/ha): 100
Plant response rating, Pigweed ([7]; Preemergence, 125 g ai/ha): 100
